ChEMBL document CHEMBL1201862, “PubChem BioAssay data set” (2004)
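Five concentrations, 48 hours, 96-well plates. Abbreviation: GI50, concentration required for 50% inhibition of growth.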 Activity calls are given as the source filed them. Cut-off read from the data, not from the text of the source: active = GI50 up to about 1.1 µM and inactive = higher.

What was measured:
Assay in all cases: DTP human tumour cell line panel, 48 h
SK-MEL-2 = tested on: SK-MEL-2
A549 = tested on: A549
MDA-MB-435 = tested on: MDA-MB-435
OVCAR-3 = tested on: OVCAR-3
ACHN = tested on: ACHN
SNB-75 = tested on: SNB-75
HCC 2998 = tested on: HCC 2998
LOX IMVI = tested on: LOX IMVI
Hs-578T = tested on: Hs-578T
RPMI-8226 = tested on: RPMI-8226
HT-29 = tested on: HT-29
NCI-H23 = tested on: NCI-H23
KM12 = tested on: KM12
UACC-62 = tested on: UACC-62
SW-620 = tested on: SW-620
BT-549 = tested on: BT-549
SF-295 = tested on: SF-295
K562 = tested on: K562
SK-MEL-28 = tested on: SK-MEL-28

SMILES	GI50 (SK-MEL-2)	GI50 (A549)	GI50 (MDA-MB-435)	GI50 (OVCAR-3)	GI50 (ACHN)	GI50 (SNB-75)	GI50 (HCC 2998)	GI50 (LOX IMVI)	GI50 (Hs-578T)	GI50 (RPMI-8226)	GI50 (HT-29)	GI50 (NCI-H23)	GI50 (KM12)	GI50 (UACC-62)	GI50 (SW-620)	GI50 (BT-549)	GI50 (SF-295)	GI50 (K562)	GI50 (SK-MEL-28)
CCOC(=O)CCC(NC(=O)c1ccc(Nc2nc3ccccc3nc2C(=O)OCC)cc1)C(=O)OCC (centres undefined)	6.79 µM (inactive)	3.78 µM (inactive)	3.91 µM (inactive)	2.04 µM (inactive)	3.58 µM (inactive)	2.36 µM (inactive)	> 76 µM (inactive)	5.58 µM (inactive)	3.1 µM (inactive)	6.76 µM (inactive)	4.67 µM (inactive)	7.52 µM (inactive)	3.78 µM (inactive)	3.2 µM (inactive)	5.77 µM (inactive)	7.66 µM (inactive)	7.71 µM (inactive)	> 100 µM (inactive)	8.91 µM (inactive)
O=C(NCc1ccccc1)c1cc2ccccc2o/c1=N\c1ccccc1F	28.1 µM (inactive)	18.1 µM (inactive)	26.3 µM (inactive)	46 µM (inactive)	19.5 µM (inactive)	20 µM (inactive)	23.1 µM (inactive)	14.9 µM (inactive)	32.1 µM (inactive)	> 100 µM (inactive)	45.8 µM (inactive)	21.5 µM (inactive)	25.7 µM (inactive)	29.9 µM (inactive)	26.1 µM (inactive)	> 100 µM (inactive)	22 µM (inactive)	> 100 µM (inactive)	66.2 µM (inactive)
COc1nc2c(c(=O)n1C)N(C(C)=O)C1C(N2)OCC(OC(C)=O)C1OC(C)=O (centres undefined)	> 10 µM (inactive)	> 10 µM (inactive)	> 10 µM (inactive)	> 10 µM (inactive)	> 10 µM (inactive)	> 10 µM (inactive)	> 10 µM (inactive)	> 10 µM (inactive)	> 10 µM (inactive)	> 10 µM (inactive)	> 10 µM (inactive)	> 10 µM (inactive)	> 10 µM (inactive)	> 10 µM (inactive)	> 10 µM (inactive)	> 10 µM (inactive)	> 10 µM (inactive)	> 10 µM (inactive)	> 10 µM (inactive)
CCOC(=O)c1cccc(/N=N/c2ncc(/C=C/C(=O)OC)[nH]2)c1	27.4 µM (inactive)	24.5 µM (inactive)	28 µM (inactive)	23.3 µM (inactive)	22 µM (inactive)	26.4 µM (inactive)	17.9 µM (inactive)	15.3 µM (inactive)	39.9 µM (inactive)	16.3 µM (inactive)	23.5 µM (inactive)	28.2 µM (inactive)	23.2 µM (inactive)	21.5 µM (inactive)	26.5 µM (inactive)	34.8 µM (inactive)	20.4 µM (inactive)	20.9 µM (inactive)	27 µM (inactive)
C[C@@H]1C[C@@H]2OC(=O)[C@]3(C)[C@H]2[C@@H](OC3(C)O)[C@]2(C)C(=O)C=C[C@@H]12 (some centres undefined) [TENULIN]	19.8 µM (inactive)	> 100 µM (inactive)	24.2 µM (inactive)	20.6 µM (inactive)	19.5 µM (inactive)	> 100 µM (inactive)	17.2 µM (inactive)	19.2 µM (inactive)	51.6 µM (inactive)	4.3 µM (inactive)	15.2 µM (inactive)	25.9 µM (inactive)	23.6 µM (inactive)	16.8 µM (inactive)	16.9 µM (inactive)	10.1 µM (inactive)	> 100 µM (inactive)	0.0543 µM (active)	18.3 µM (inactive)
O=c1c2ccccc2c2c1c1c3ccccc3c(=O)c1c1c3ccccc3c(=O)c21	> 100 µM (inactive)	> 100 µM (inactive)	> 100 µM (inactive)	> 100 µM (inactive)	> 100 µM (inactive)	> 100 µM (inactive)	> 100 µM (inactive)	> 100 µM (inactive)	> 100 µM (inactive)	> 100 µM (inactive)	> 100 µM (inactive)	> 100 µM (inactive)	> 100 µM (inactive)	> 100 µM (inactive)	> 100 µM (inactive)	> 100 µM (inactive)	> 100 µM (inactive)	> 100 µM (inactive)	> 100 µM (inactive)
